The results in this text go back to patent US6784137B2, “6-aryl-4-aminopicolinates and their use as herbicides” (Dow AgroSciences LLC, priority 2001, dated 2004).

As usually defined, the melting point is the temperature of the solid-liquid transition.

Read-outs that look alike come from different tables or passages of the source.

Data set [1] concerns Cocklebur (Xanthium strumarium). Description: Postemergence herbicidal activity, greenhouse spray. It is filed as in vivo. The following applies: visual score after 2 weeks; for pest or weed control at 500 ppm / pest or weed control at 250 ppm / pest or weed control at 125 ppm: Xanthium strumarium, post-emergence, 336 h, read-out: Post-emergent % control XANST; for pest or weed control at 250 ppm: rate 250 ppm. The procedure: (§1) When required to ensure good germination and healthy plants, a fungicide treatment and/or other chemical or physical treatment was applied. The plants were grown for 7-21 days in a greenhouse with an approximate 15 hr photoperiod which was maintained at about 23-29° C. during the day and 22-28° C. during the night. Nutrients and water were added on a regular basis and supplemental lighting was provided with overhead metal halide 1000-Watt lamps as necessary. The plants were employed for testing when they reached the first or second true leaf stage. A weighed amount, determined by the highest rate to be tested, of each test compound was placed in a 20 mL glass vial and was dissolved in 4 mL of a 97:3 v/v (volume/volume) mixture of acetone and dimethyl sulfoxide (DMSO) to obtain concentrated stock solutions. […] The concentrated stock solutions obtained were diluted with an aqueous mixture containing acetone, water, isopropyl alcohol, DMSO, At plus 411 F crop oil concentrate, and Triton X-155 surfactant in a 48.5:39:10:1.5:1.0:0.02 v/v ratio to obtain spray solutions of known concentration. The solutions containing the highest concentration to be tested were prepared by diluting 2 mL aliquots of the stock solution with 13 mL of the mixture and lower concentrations were prepared by serial dilution of the stock solution. Approximately 1.5 mL aliquots of each solution of known concentration were sprayed evenly onto each of the test plant pots using a DeVilbiss atomizer driven by compressed air pressure of 2 to 4 psi (140 to 280 kiloPascals) to obtain thorough coverage of each plant. Control plants were sprayed in the same manner with the aqueous mixture. […] The treated plants and control plants were placed in a greenhouse as described above and watered by sub-irrigation to prevent wash-off of the test compounds.

Data set [2] has as its system Barnyardgrass (Echinochloa crus-galli). The description is as above. The format is in vivo. The settings on record: visual score after 2 weeks; for pest or weed control at 500 ppm / pest or weed control at 250 ppm / pest or weed control at 125 ppm: Echinochloa crus-galli, post-emergence, 336 h, read-out: Post-emergent % control ECHCG; for pest or weed control at 250 ppm: rate 250 ppm. The procedure: as §1

Data set [3] deals with Yellow nutsedge (Cyperus esculentus). The data set is described as above. It is filed as in vivo. The settings on record: visual score after 2 weeks; for pest or weed control at 500 ppm / pest or weed control at 250 ppm / pest or weed control at 125 ppm: Cyperus, post-emergence, 336 h, read-out: Post-emergent % control CYPES; for pest or weed control at 250 ppm: rate 250 ppm. The procedure:
as §1

Data set [4] concerns Lambsquarter (Chenopodium album). Described as above. It is filed as in vivo. The following applies: visual score after 2 weeks; for pest or weed control at 500 ppm / pest or weed control at 250 ppm / pest or weed control at 125 ppm: Chenopodium album, post-emergence, 336 h, read-out: Post-emergent % control CHEAL; for pest or weed control at 250 ppm: rate 250 ppm. The procedure: as §1

The mark [5] stands for this setting: Table 1, rate 500 ppm, 0 no injury, 100 complete kill.

With `COC(=O)c1nc(-c2ccccc2F)cc(N)c1Cl` [Compound 33, Methyl 4-amino-3-chloro-6-(2-fluorophenyl)pyridine-2-carboxylate], the pest or weed control at 500 ppm was found to be 100% in data set [1] (setting [5]); 30% in data set [2] (Table 1, rate 500 ppm); 10% in data set [3] (Table 1, rate 500 ppm); 100% in data set [4] (Table 1, rate 500 ppm).

Consider `COC(=O)c1nc(-c2ccc(C(F)(F)F)cc2)c(Cl)c(N)c1Cl` [Compound 44, Methyl 4-amino-3,5-dichloro-6-[4-(trifluoromethyl)phenyl]pyridine-2-carboxylate], for which the melting point is 110 to 111 °C. Also, in data set [1] (Table 1), the pest or weed control at 250 ppm amounted to 100%. In addition, the pest or weed control at 250 ppm in data set [2] (Table 1) turned out to be 30%. For the same compound, the pest or weed control at 250 ppm in data set [3] (Table 1) worked out at 70%. In addition, the pest or weed control at 250 ppm in data set [4] (Table 1) was found to be 80%.

Consider `COC(=O)c1nc(-c2ccc3ccccc3c2)cc(N)c1Cl` [Compound 47, Methyl 4-amino-3-chloro-6-(2-naphthyl)pyridine-2-carboxylate], for which the melting point lay in the range of 108 to 109 °C. For the same compound, the pest or weed control at 500 ppm in data set [1] (setting [5]) came to 90%. Also, the pest or weed control at 500 ppm in data set [2] (Table 1, rate 500 ppm) turned out to be 80%. Besides, in data set [3] (Table 1, rate 500 ppm), the pest or weed control at 500 ppm came out at 0%. In data set [4] (Table 1, rate 500 ppm), the pest or weed control at 500 ppm was found to be 90%.

In turn, `COC(=O)c1nc(-c2ccc(Cl)cc2Cl)c(F)c(NC(C)=O)c1Cl` [Compound 49, Methyl 4-acetamido-3-chloro-5-fluoro-6-(2,4-dichlorophenyl)pyridine-2-carboxylate] had a melting point of 178 to 179 °C. In addition, in data set [1] (Table 1, rate 125 ppm), the pest or weed control at 125 ppm is 100%. The pest or weed control at 125 ppm in data set [2] (Table 1, rate 125 ppm) was 10%. In data set [3] (Table 1, rate 125 ppm), the pest or weed control at 125 ppm is 30%. The pest or weed control at 125 ppm in data set [4] (Table 1, rate 125 ppm) came out at 80%.

On to `COC(=O)c1nc(-c2ccc3c(c2)CCO3)c(F)c(N)c1Cl` [Compound 85, Methyl 4-amino-3-chloro-5-fluoro-6-(2,3-dihydro-5-benzofuranyl)pyridine-2-carboxylate], for which the melting point is 120 °C. Moreover, the pest or weed control at 250 ppm in data set [1] (Table 1) came out at 100%. Also, the pest or weed control at 250 ppm in data set [2] (Table 1) was 99%. The pest or weed control at 250 ppm in data set [3] (Table 1) was 70%. Moreover, the pest or weed control at 250 ppm in data set [4] (Table 1) was determined as 100%.

Consider `COC(=O)c1nc(-c2ccc(C(F)(F)F)cc2)c(F)c(N)c1F` [Compound 94, Methyl 4-amino-3,5-difluoro-6-[4-(trifluoromethyl)phenyl]pyridine-2-carboxylate], for which the melting point was 177 to 178 °C. Further, the pest or weed control at 500 ppm in data set [1] (setting [5]) was determined as 100%. Moreover, the pest or weed control at 500 ppm in data set [2] (Table 1, rate 500 ppm) stood at 90%. The pest or weed control at 500 ppm in data set [3] (Table 1, rate 500 ppm) came out at 90%. The pest or weed control at 500 ppm in data set [4] (Table 1, rate 500 ppm) was 100%.

Take `COC(=O)c1nc(-c2ccc3c(c2)OCO3)c(F)c(N)c1F` [Compound 95, Methyl 4-amino-3,5-difluoro-6-(3,4-methylenedioxyphenyl)pyridine-2-carboxylate]: the melting point lay in the range of 189 to 190 °C. Further, the pest or weed control at 125 ppm in data set [1] (Table 1, rate 125 ppm) is 80%. Moreover, the pest or weed control at 125 ppm in data set [2] (Table 1, rate 125 ppm) amounted to 70%. In addition, in data set [3] (Table 1, rate 125 ppm), the pest or weed control at 125 ppm is 60%. Further, in data set [4] (Table 1, rate 125 ppm), the pest or weed control at 125 ppm was found to be 90%.

Consider `COC(=O)c1nc(-c2ccc(Cl)s2)cc(N)c1Cl` [Compound 98, Methyl 4-amino-3-chloro-6-(5-chloro-2-thienyl)pyridine-2-carboxylate], for which the pest or weed control at 125 ppm in data set [1] (Table 1, rate 125 ppm) was 90%; in data set [2] (Table 1, rate 125 ppm), 50%; in data set [3] (Table 1, rate 125 ppm), 70%; in data set [4] (Table 1, rate 125 ppm) it was 90%.

In turn, `COC(=O)c1nc(-c2ccc(Cl)cn2)cc(N)c1Cl` [Compound 111, Methyl 4-amino-3-chloro-6-(5-chloro-2-pyridyl)pyridine-2-carboxylate] came in with a melting point of 145 to 150 °C. Moreover, the pest or weed control at 250 ppm in data set [1] (Table 1) amounted to 100%. The pest or weed control at 250 ppm in data set [2] (Table 1) was found to be 70%. Besides, the pest or weed control at 250 ppm in data set [3] (Table 1) turned out to be 80%. The pest or weed control at 250 ppm in data set [4] (Table 1) stood at 100%.

In the case of `COC(=O)c1nc(-c2ccc(C)nn2)cc(N)c1Cl` [Compound 121, Methyl 4-amino-3-chloro-6-(3-(6-methyl)pyridazinyl)pyridine-2-carboxylate], in data set [1] (Table 2, rate 125 ppm), the “Post-emergent % control XANST” value is on record as 100%. In data set [2] (Table 2, rate 125 ppm), the “Post-emergent % control ECHCG” value is listed as 80%. In addition, in data set [3] (Table 2, rate 125 ppm), the “Post-emergent % control CYPES” value came to 80%. The “Post-emergent % control CHEAL” value in data set [4] (Table 2, rate 125 ppm) turned out to be 90%.

As for `Nc1cc(-c2ccc(F)cc2Cl)nc(C(=O)O)c1Cl` [Compound 170, 4-Amino-3-chloro-6-(2-chloro-4-fluorophenyl)pyridine-2-carboxylic acid], the melting point fell in the range of 156 to 157 °C. In data set [1] (setting [5]), the pest or weed control at 500 ppm stood at 100%. For the same compound, in data set [2] (Table 1, rate 500 ppm), the pest or weed control at 500 ppm amounted to 80%. Moreover, in data set [3] (Table 1, rate 500 ppm), the pest or weed control at 500 ppm was found to be 70%. The pest or weed control at 500 ppm in data set [4] (Table 1, rate 500 ppm) came out at 100%.

On to `Nc1c(Cl)c(C(=O)O)nc(-c2ccc(C(F)(F)F)cc2)c1Cl` [Compound 171, 4-Amino-3′,5-dichloro-6-[4-(trifluoromethyl)phenyl]pyridine-2-carboxylic acid], for which, in data set [1] (setting [5]), the “Post-emergent % control XANST” value came out at 100%. The “Post-emergent % control ECHCG” value in data set [2] (Table 1, rate 500 ppm) is reported as 80%. For the same compound, the “Post-emergent % control CYPES” value in data set [3] (Table 1, rate 500 ppm) is 60%. Besides, the “Post-emergent % control CHEAL” value in data set [4] (Table 1, rate 500 ppm) stood at 95%.

Consider `Nc1c(F)c(-c2ccc(Cl)cc2)nc(C(=O)O)c1Cl` [Compound 183, 4-Amino-3-chloro-5-fluoro-6-(4-chlorophenyl)pyridine-2-carboxylic acid], for which the pest or weed control at 125 ppm in data set [1] (Table 2, rate 125 ppm) was 100%; in data set [2] (Table 2, rate 125 ppm) it was 100%; in data set [3] (Table 2, rate 125 ppm), 100%; in data set [4] (Table 2, rate 125 ppm) it was 100%.

As to `Nc1c(F)c(C(=O)O)nc(-c2ccc(C(F)(F)F)cc2)c1F` [Compound 200, 4-Amino-3,5-fluoro-6-(4-(trifluoromethyl)phenyl)pyridine-2-carboxylic acid], the “Post-emergent % control XANST” value in data set [1] (setting [5]) worked out at 100%; in data set [1] (Table 2, rate 125 ppm) it was 90%. The “Post-emergent % control ECHCG” value stood at 95% in data set [2] (Table 1, rate 500 ppm) and 70% in data set [2] (Table 2, rate 125 ppm). Besides, the “Post-emergent % control CYPES” value in data set [3] (Table 1, rate 500 ppm) amounted to 90%; in data set [3] (Table 2, rate 125 ppm), 90%. In addition, the “Post-emergent % control CHEAL” value in data set [4] (Table 1, rate 500 ppm) came to 95%; in data set [4] (Table 2, rate 125 ppm), 80%.

As for `CCCCCCCCCCOC(=O)c1nc(-c2ccc(Cl)cc2)c(F)c(N)c1Cl` [Compound 244, Decyl 4-amino-3-chloro-5-fluoro-6-(4-chlorophenyl)pyridine-2-carboxylate], the melting point lay within 62 to 63 °C.

Take `CCCCOCCOC(=O)c1nc(-c2ccc(Cl)cc2)c(F)c(N)c1Cl` [Compound 245, 2-Butoxyethyl 4-amino-3-chloro-5-fluoro-6-(4-chlorophenyl)pyridine-2-carboxylate]: the melting point lay in the range of 103 to 104 °C.

On to `CCCCOC(=O)c1nc(-c2ccc(C)cc2)cc(N)c1Cl` [Compound 249, Butyl 4-amino-3-chloro-6-(4-methylphenyl)pyridine-2-carboxylate], for which the melting point fell in the range of 60 to 62 °C.

The compound `CCOC(=O)c1nc(-c2ccc(Cl)cc2)c(F)c(N)c1Cl` [Compound 252, Ethyl 4-amino-3-chloro-5-fluoro-6-(4-chlorophenyl)pyridine-2-carboxylate] yielded a melting point of 88 to 89 °C.

`CCOC(=O)c1nc(-c2ccc(C)cc2)cc(N)c1Cl` [Compound 263, Ethyl 4-amino-3-chloro-6-(4-methylphenyl)pyridine-2-carboxylate] registered a melting point of 129 to 130 °C.
